According to patent publication US5407918A, “16-membered macrolide derivatives and process for producing the same” (Meiji Seika Kaisha, Ltd., priority 1992, dated 1995):
Converted amounts (≈) assume the structure as drawn.

What was measured:
S. aureus MS15027 = assay: MIC, agar plate dilution method; type: cell-based; conditions: Staphylococcus aureus, 37° C., 20 hours, read-out: Antimicrobial activity (MIC)
Protocol: (§1) Antimicrobial activities of the compounds of the present invention were determined by measuring minimum inhibitory concentration (MIC). Minimum inhibitory concentration was determined by the agar plate dilution method in the following manner.
(§2) Test strains were subjected to seed culture using Sensitivity test broth (STB, Nissui Pharmaceutical) except that the strains belonging to the genus Streptococcus, Branhamella and Haemophilus were cultured on blood agar plate. A 5 μl portion of cell suspension of the test strains having about 10^6 CFU/ml was inoculated into Sensitivity disk agar (SDA, Nissui Pharmaceutical) supplemented with 5% horse blood and incubated at 37° C. for 20 hours. Then, MIC was measured. For comparison, MDM and leucomycin A7 (LM-A7) was also tested.

S. Pyogenes Cook = assay: MIC, agar plate dilution method; type: cell-based; conditions: Streptococcus pyogenes, 37° C., 20 hours, read-out: Antimicrobial activity (MIC)
Protocol: as §1, §2

S. aureus 209P JC-1 = assay: MIC, agar plate dilution method; type: cell-based; conditions: Staphylococcus aureus; S. aureus 209P JC-1; 37° C., 20 hours; read-out: Antimicrobial activity (MIC)
Protocol: as §1, §2

S. aureus MS15026 = assay: MIC, agar plate dilution method; type: cell-based; conditions: Staphylococcus aureus, 37° C., 20 hours, read-out: Antimicrobial activity (MIC)
Protocol: as §1, §2

B. catarrhalis W-0506 = assay: MIC, agar plate dilution method; type: cell-based; conditions: Moraxella catarrhalis, W0506, 37° C., 20 hours, read-out: Antimicrobial activity (MIC)
Protocol: as §1, §2

E. faecalis W-73 = assay: MIC, agar plate dilution method; type: cell-based; conditions: Enterococcus faecalis, W73; E. faecalis W-73; 37° C., 20 hours; read-out: Antimicrobial activity (MIC)
Protocol: as §1, §2

B. catarrhalis W-0500 = assay: MIC, agar plate dilution method; type: cell-based; conditions: Moraxella catarrhalis, W0500, 37° C., 20 hours, read-out: Antimicrobial activity (MIC)
Protocol: as §1, §2

H. influenzae Type b = assay: MIC, agar plate dilution method; type: cell-based; conditions: Haemophilus influenzae; H. influenzae Type b; 37° C., 20 hours; read-out: Antimicrobial activity (MIC)
Protocol: as §1, §2

S. aureus M133 = assay: MIC, agar plate dilution method; type: cell-based; conditions: Staphylococcus aureus, 37° C., 20 hours, read-out: Antimicrobial activity (MIC)
Protocol: as §1, §2

S. aureus MS15009/pMS98 = assay: MIC, agar plate dilution method; type: cell-based; conditions: Staphylococcus aureus, MS15009/PMS98, 20 h, read-out: Antimicrobial activity (MIC)
Protocol: as §1, §2

H. influenzae 9334 = assay: MIC, agar plate dilution method; type: cell-based; conditions: Haemophilus influenzae; H. influenzae 9334; 37° C., 20 hours; read-out: Antimicrobial activity (MIC)
Protocol: as §1, §2

S. aureus MS15009/pMS99 = assay: MIC, agar plate dilution method; type: cell-based; conditions: Staphylococcus aureus, MS15009/PMS99, 20 h, read-out: Antimicrobial activity (MIC)
Protocol: as §1, §2

S. aureus M126 = assay: MIC, agar plate dilution method; type: cell-based; conditions: Staphylococcus aureus; S. aureus M126; 37° C., 20 hours; read-out: Antimicrobial activity (MIC)
Protocol: as §1, §2

S. Pneumoniae Type 1 = assay: MIC, agar plate dilution method; type: cell-based; conditions: Streptococcus pneumoniae; S. Pneumoniae Type 1; 37° C., 20 hours; read-out: Antimicrobial activity (MIC)
Protocol: as §1, §2

M. luteus ATCC9341 = assay: MIC, agar plate dilution method; type: cell-based; conditions: Micrococcus luteus; M. luteus ATCC9341; 37° C., 20 hours; read-out: Antimicrobial activity (MIC)
Protocol: as §1, §2

K. pneumoniae PC1602 = assay: MIC, agar plate dilution method; type: cell-based; conditions: Klebsiella pneumoniae, 37° C., 20 hours, read-out: Antimicrobial activity (MIC)
Protocol: as §1, §2

S. pneumoniae IP692 = assay: MIC, agar plate dilution method; type: cell-based; conditions: Streptococcus pneumoniae; S. pneumoniae IP692; 37° C., 20 hours; read-out: Antimicrobial activity (MIC)
Protocol: as §1, §2

S. epidermidis ATCC14990 = assay: MIC, agar plate dilution method; type: cell-based; conditions: Staphylococcus epidermidis, 37° C., 20 hours, read-out: Antimicrobial activity (MIC)
Protocol: as §1, §2

E. coli NIHJ JC-2 = assay: MIC, agar plate dilution method; type: cell-based; conditions: Escherichia coli, NIHJJC2; E. coli NIHJ JC-2; 37° C., 20 hours; read-out: Antimicrobial activity (MIC)
Protocol: as §1, §2

Gram-positive bacteria = assay: antimicrobial activity in vitro (summary in words); type: cell-based; conditions: from Tables 2 and 3
Protocol: as §1, §2

test strains = assay: antimicrobial activity in vitro, comparison in words; type: cell-based; conditions: for antimicrobial activity in vitro compared with MOM: data are not shown; for antimicrobial activity compared with LM-A7: except on Haemophilus influenzae, Tables 2 and 3
Protocol: as §1, §2

[1] = concentration in serum after oral administration to mice, bioassay; type: in vivo, mice (Jcl:ICR)
Protocol: The compound (3) was mixed with a 0.2% solution of carboxymethylcellulose to give a concentration of 4 mg/ml and a 1 ml portion of the resulting emulsion was orally administered to 4-week-old male Jcl:ICR mice. Blood was collected from armpit of the mice 30, 60, 120, 240 and 360 minutes after the administration of the test compound (n=2). The collected blood was allowed to stand at room temperature for about 2 hours and centrifuged for 20 minutes with a centrifuge (KUBOTA KS-5000P) to obtain serum. To the serum was added an equivalent volume of 50% CH3 CN-50 mM phosphate (1:1 by volume) buffer (pH 7.0). The resulting mixture served as a serum sample. The concentration of the test compound in the serum sample was measured by the following bioassay method.
One hundred […] of the serum sample was poured into a hole made on a test plate containing 40 ml of MRAPJ medium (6 g/l peptone, 3 g/l yeast extract, 1.5 g/l meat extract, 1 g/l glucose and 15 g/l agar, pH 6.5) supplemented with a solution of M. Iuteus ATCC9341 (1%) and incubated at 32° C. for 18 hours and MIC was measured based on the calibration curve. MOM, MDM and RKM were also tested for comparison. […] Thus a long-pending problem of "low concentration in serum" of 16-membered macrolide antibiotics has been solved. […] Thus this compound is considered as a macrolide derivative showing new pharmacokinetics.
Further, a pharmacokinetics test on the compound (12) of the present invention is carried out in the same manner as described above. Namely, 200 mg/kg of the compound (12) is orally administered to mice and the concentration of this compound in the serum is determined by a bioassay method with the use of M. luteus as a test strain. […] The disadvantage of 16-membered ring macrolide antibiotics, which has been pointed out for a long time, has been thus overcome.

SMILES | MIC (S. aureus MS15027) | MIC (S. Pyogenes Cook) | MIC (S. aureus 209P JC-1) | MIC (S. aureus MS15026) | MIC (B. catarrhalis W-0506) | MIC (E. faecalis W-73) | MIC (B. catarrhalis W-0500) | MIC (H. influenzae Type b) | MIC (S. aureus M133) | MIC (S. aureus MS15009/pMS98) | MIC (H. influenzae 9334) | MIC (S. aureus MS15009/pMS99) | MIC (S. aureus M126) | MIC (S. Pneumoniae Type 1) | MIC (M. luteus ATCC9341) | MIC (K. pneumoniae PC1602) | MIC (S. pneumoniae IP692) | MIC (S. epidermidis ATCC14990) | MIC (E. coli NIHJ JC-2) | antimicrobial activity on Gram-positive bacteria (Gram-positive bacteria) | also measured
CCCCO[C@H]1[C@H](C)O[C@@H](O[C@H]2[C@H](N(C)C)[C@@H](O)[C@H](O[C@H]3[C@@H](CC=O)C[C@@H](C)[C@@H](O)/C=C/C=C/C[C@@H](C)OC(=O)C[C@@H](O)[C@@H]3OC)O[C@@H]2C)C[C@@]1(C)OC [(10)] | 0.39 µg/mL (≈ 0.505 µM) | 0.1 µg/mL (≈ 0.13 µM) | 0.1 µg/mL (≈ 0.13 µM) | > 100 µg/mL | 1.56 µg/mL (≈ 2.02 µM) | 0.78 µg/mL (≈ 1.01 µM) | 0.78 µg/mL (≈ 1.01 µM) | 12.5 µg/mL (≈ 16.2 µM) | 0.39 µg/mL (≈ 0.505 µM) | 0.39 µg/mL (≈ 0.505 µM) | 3.13 µg/mL (≈ 4.05 µM) | > 100 µg/mL | > 100 µg/mL | 0.2 µg/mL (≈ 0.259 µM) | 0.05 µg/mL (≈ 0.0648 µM) | > 100 µg/mL | 0.1 µg/mL (≈ 0.13 µM) | 0.39 µg/mL (≈ 0.505 µM) | > 100 µg/mL | strong antimicrobial activity | antimicrobial activity in vitro compared with MOM (test strains): clearly much superior to MOM; antimicrobial activity compared with LM-A7 (test strains): comparable or superior
CCCCCO[C@H]1[C@H](C)O[C@@H](O[C@H]2[C@H](N(C)C)[C@@H](O)[C@H](O[C@H]3[C@@H](CC=O)C[C@@H](C)[C@@H](O)/C=C/C=C/C[C@@H](C)OC(=O)C[C@@H](O)[C@@H]3OC)O[C@@H]2C)C[C@@]1(C)OC [(11)] | 0.39 µg/mL (≈ 0.496 µM) | 0.1 µg/mL (≈ 0.127 µM) | 0.1 µg/mL (≈ 0.127 µM) | > 100 µg/mL | 0.78 µg/mL (≈ 0.992 µM) | 0.39 µg/mL (≈ 0.496 µM) | 0.39 µg/mL (≈ 0.496 µM) | 12.5 µg/mL (≈ 15.9 µM) | 0.39 µg/mL (≈ 0.496 µM) | 0.39 µg/mL (≈ 0.496 µM) | 3.13 µg/mL (≈ 3.98 µM) | > 100 µg/mL | > 100 µg/mL | 0.2 µg/mL (≈ 0.254 µM) | 0.05 µg/mL (≈ 0.0636 µM) | > 100 µg/mL | 0.05 µg/mL (≈ 0.0636 µM) | 0.39 µg/mL (≈ 0.496 µM) | > 100 µg/mL | strong antimicrobial activity | antimicrobial activity in vitro compared with MOM (test strains): clearly much superior to MOM; antimicrobial activity compared with LM-A7 (test strains): comparable or superior
CO[C@@H]1[C@@H](O[C@@H]2O[C@H](C)[C@@H](O[C@H]3C[C@@](C)(OC)[C@@H](OCCC(C)C)[C@H](C)O3)[C@H](N(C)C)[C@H]2O)[C@@H](CC=O)C[C@@H](C)[C@@H](O)/C=C/C=C/C[C@@H](C)OC(=O)C[C@H]1O [(12)] | 0.39 µg/mL (≈ 0.496 µM) | 0.05 µg/mL (≈ 0.0636 µM) | 0.1 µg/mL (≈ 0.127 µM) | > 100 µg/mL | 0.39 µg/mL (≈ 0.496 µM) | 0.39 µg/mL (≈ 0.496 µM) | 0.39 µg/mL (≈ 0.496 µM) | 6.25 µg/mL (≈ 7.95 µM) | 0.39 µg/mL (≈ 0.496 µM) | 0.2 µg/mL (≈ 0.254 µM) | 1.56 µg/mL (≈ 1.98 µM) | > 100 µg/mL | > 100 µg/mL | 0.1 µg/mL (≈ 0.127 µM) | 0.05 µg/mL (≈ 0.0636 µM) | > 100 µg/mL | 0.1 µg/mL (≈ 0.127 µM) | 0.39 µg/mL (≈ 0.496 µM) | > 100 µg/mL | strong antimicrobial activity | antimicrobial activity in vitro compared with MOM (test strains): clearly much superior to MOM; antimicrobial activity compared with LM-A7 (test strains): comparable or superior; Cmax ([1]; mouse, serum, 200 mg/kg, M. luteus bioassay, read-out: maximum concentration in the serum): 11500 ng/mL; maximum concentration in the serum, comparison in words ([1]; versus clarythromycin (CAM) or other 16-membered macrolides): comparable to that of CAM
CO[C@@H]1[C@@H](O[C@@H]2O[C@H](C)[C@@H](O[C@H]3C[C@@](C)(OC)[C@@H](OCc4ccccc4)[C@H](C)O3)[C@H](N(C)C)[C@H]2O)[C@@H](CC=O)C[C@@H](C)[C@@H](O)/C=C/C=C/C[C@@H](C)OC(=O)C[C@H]1O [(16)] | 0.2 µg/mL (≈ 0.248 µM) | 0.1 µg/mL (≈ 0.124 µM) | 0.1 µg/mL (≈ 0.124 µM) | > 100 µg/mL | 0.78 µg/mL (≈ 0.968 µM) | 0.39 µg/mL (≈ 0.484 µM) | 0.78 µg/mL (≈ 0.968 µM) | 6.25 µg/mL (≈ 7.75 µM) | 0.39 µg/mL (≈ 0.484 µM) | 0.2 µg/mL (≈ 0.248 µM) | 3.13 µg/mL (≈ 3.88 µM) | > 100 µg/mL | > 100 µg/mL | 0.1 µg/mL (≈ 0.124 µM) | 0.05 µg/mL (≈ 0.062 µM) | > 100 µg/mL | 0.1 µg/mL (≈ 0.124 µM) | 0.2 µg/mL (≈ 0.248 µM) | > 100 µg/mL | strong antimicrobial activity | antimicrobial activity in vitro compared with MOM (test strains): clearly much superior to MOM; antimicrobial activity compared with LM-A7 (test strains): comparable or superior
